From patent publication US20240408219A1, “BICYCLIC PEPTIDE LIGAND DRUG CONJUGATES” (priority 2021, published 2024)
Several values for one entry are separate records, joined by “and”; a condition that tells them apart may be missing. Identical values can stand only once. Numbered stars: 1 amine (or outer) side, 2 acyl side, 3 side chain; on linkers, the order of the positions; unused ones are H or OH. Bridge positions count the residues as written; N and C are the ends. Square brackets hold non-standard residues; d marks the D form. Ends that are not written are not given here. 1Nal = N[C@@H](Cc1cccc2ccccc12)C(=O)O; TBMB = c1c(C[*:1])cc(C[*:3])cc1C[*:2]; Tle = CC(C)(C)[C@H](N)C(=O)O; βAla = NCCC(=O)O; Sar = CNCC(=O)O

Test system: HT1080 xenograft
Assay: In vivo efficacy test in HT1080 xenograft in BALB/c nude mice (Example 1)
Experimental: [table] • Species: Mus Musculus • Strain: […] Shanghai LC Laboratory Animal Co., LTD. […] The tumor cells were routinely subcultured twice weekly by trypsin-EDTA treatment. The cells growing in an exponential growth phase were harvested and counted for tumor inoculation. […] The test article administration and the animal numbers in each group were shown in the experimental design table. […] All the procedures related to animal handling, care and the treatment in the study were performed according to the guidelines approved by the Institutional Animal Care and Use Committee (IACUC) of WuXi AppTec, following the guidance of the Association for Assessment and Accreditation of Laboratory Animal Care (AAALAC). At the time of routine monitoring, the animals were daily checked for any effects of tumor growth and treatments on normal behavior such as mobility, food and water consumption (by looking only), body weight gain/loss, eye/hair matting and any other abnormal effect as stated in the protocol. Death and observed clinical signs were recorded on the basis of the numbers of animals within each subset. The major endpoint was to see if the tumor growth could be delayed or mice could be cured. […] The tumor size was then used for calculations of T/C value. The T/C value (in percent) is an indication of antitumor effectiveness; T and C are the mean volumes of the treated and control groups, respectively, on a given day. TGI was calculated for each group using the formula: […] Ti is the average tumor volume of a treatment group on a given day, TO is the average tumor volume of the treatment group on the day of treatment start, Vi is the average tumor volume of the vehicle control group on the same day with Ti, and VO is the average tumor volume of the vehicle group on the day of treatment start. Summary statistics, including mean and the standard error of the mean (SEM), are provided for the tumor volume of each group at each time point. Statistical analysis of difference in tumor volume among the groups was conducted on the data obtained at the best therapeutic time point after the final dose. A one-way ANOVA was performed to compare tumor volume among groups, and when a significant F-statistics (a ratio of treatment variance to the error variance) was obtained, comparisons between groups were carried out with Games-Howell test. All data were analyzed using Prism.

With “BT17BDC70: Reference bicyclic peptide drug conjugate (Tet-MMAE); BICY comprises βAla-Sar10-A-(SEQ ID NO: 1) ([βAla][Sar][Sar][Sar][Sar][Sar][Sar][Sar][Sar][Sar][Sar]AC[dA]NE[1Nal][dA]CEDFYD[Tle]C-NH2; linker 13-19-26 via TBMB; also: Tet-MMAE conjugate)” the “Antitumor activity (in words)” value (0.1 mg/kg biw) was “did not produce significant antitumor activity”, the “Antitumor activity (in words)” value (0.3 mg/kg biw) was “did not produce significant antitumor activity” and the “Tumor volume (mean ± SEM)” value (0.1 mpk iv biw, day 0 after the start of treatment) was 170 ± 21 mm^3. For the same substance, the “Tumor volume (mean ± SEM)” value (0.1 mpk iv biw, day 2) was 400 ± 45 mm^3, the “Tumor volume (mean ± SEM)” value (0.1 mpk iv biw, day 4) was 557 ± 23 mm^3 and the “Tumor volume (mean ± SEM)” value (0.1 mpk iv biw, day 7) was 1017 ± 180 mm^3. The “Tumor volume (mean ± SEM)” value (0.1 mpk iv biw, day 9) was 1102 ± 295 mm^3, the “Tumor volume (mean ± SEM)” value (0.1 mpk iv biw, day 11) was 1133 ± 203 mm^3 and the T/C (0.1 mpk iv biw, day 14) was 129.9%. For the same substance, the TGI (0.1 mpk iv biw, day 14) was −36.3%, the “Tumor volume (mean ± SEM)” value (0.1 mpk iv biw, day 14) was 1315 mm^3 and 1315 ± 287 mm^3 and the “Tumor volume (mean ± SEM)” value (0.3 mpk iv biw, day 0 after the start of treatment) was 170 ± 27 mm^3. For the same substance, the “Tumor volume (mean ± SEM)” value (0.3 mpk iv biw, day 2) was 371 ± 63 mm^3, the “Tumor volume (mean ± SEM)” value (0.3 mpk iv biw, day 4) was 501 ± 91 mm^3 and the “Tumor volume (mean ± SEM)” value (0.3 mpk iv biw, day 7) was 703 ± 69 mm^3. The “Tumor volume (mean ± SEM)” value (0.3 mpk iv biw, day 9) was 695 ± 60 mm^3, the “Tumor volume (mean ± SEM)” value (0.3 mpk iv biw, day 11) was 745 ± 60 mm^3 and the T/C (0.3 mpk iv biw, day 14) was 89.2%. For the same substance, the TGI (0.3 mpk iv biw, day 14) was 12.8%, the “Tumor volume (mean ± SEM)” value (0.3 mpk iv biw, day 14) was 903 mm^3 and 903 ± 67 mm^3 and the “Antitumor activity (in words)” value (over all doses tested) was “did not produce significant antitumor activity”.
